In test [1] the target is Glycogen synthase kinase-3 beta (Homo sapiens, UniProt P49841). Nature of the test: Inhibition of recombinant GSK-3beta (unknown origin) using GS peptide as substrate in presence of ATP incubated for 1 hrs by ADP-Glo kinase assay.
In another test the test system is Ehrlich. Kind of test: Antitumor activity against mouse Ehrlich ascites carcinoma allografted in Swiss albino mouse assessed as tumor growth inhibition at 20 mg/kg, ip for 12 days. In kind it is functional. The settings on record: 288 h, time 12 day, read-out: TGI.
Test [2] can be described thus: Inhibition of Saccharomyces cerevisiae full-length ai5gamma intron self-splicing by fluorimetric assay.
Another test has as its system Candida parapsilosis. Kind of test: Antifungal activity against Candida parapsilosis assessed as reduction in fungal growth. In kind it is functional. The settings on record: Lodderomyces parapsilosis.
In the next test the test system is MES-SA/Dx5. Kind of test: Antiproliferative activity against doxorubicin resistant human MES-SA/Dx5 cells assessed as reduction in cell viability incubated for 72 hrs by PrestoBlue cell viability assay. To be noted: MES-SA/Dx5, 72 h. In kind it is functional, cell-based.
A short description of test [3]: Selectivity ratio of IC50 for antiproliferative activity against human MES-SA cells to IC50 for antiproliferative activity against doxorubicin resistant human MES-SA/Dx5 cells. Type of test: functional.
The subject of another test is MES-SA. Kind of test: Antiproliferative activity against human MES-SA cells assessed as reduction in cell viability incubated for 72 hrs by PrestoBlue cell viability assay. In kind it is functional, cell-based.
Test [4] has as its target Serine/threonine-protein kinase pim-1 (Homo sapiens, UniProt P11309). Kind of test: Inhibition of PIM1 (unknown origin) using poly-Glu-Tyr (4:1) as substrate in presence of [gamma-33P-ATP] incubated for 2 hrs by radiometric kinase assay.
Test [5] has as its target Amyloid-beta precursor protein (Homo sapiens, UniProt P05067). Nature of the test: Binding affinity to human brain homogenate amyloid beta by radioligand competition binding assay. In kind it is tissue-based. (Loss of bound radioactivity is the signal in a displacement assay; it reports binding, not function.)
The test system of the next test is Bel-7402. Nature of the test: Antiproliferative activity against human Bel-7402 cells assessed as reduction in cell viability incubated for 48 hrs by MTT assay. Type of test: functional, cell-based. The settings on record: Bel-7402, 48 h. A general note: Tetrazolium assays rely on reduction of a dye to a coloured formazan, in cell work by metabolically active cells.

In another test the test system is K562. Nature of the test: Antiproliferative activity against human K562 cells assessed as reduction in cell viability incubated for 48 hrs by MTT assay. Type of test: functional, cell-based. The settings on record: K562, 48 h.
The subject of another test is A549. Kind of test: Antiproliferative activity against human A549 cells assessed as reduction in cell viability incubated for 48 hrs by MTT assay. Type of test: functional, cell-based. To be noted: A549, 48 h.
The subject of a further test is PC-3. Kind of test: Antiproliferative activity against human PC-3 cells assessed as reduction in cell viability incubated for 48 hrs by MTT assay. Type of test: functional, cell-based. To be noted: PC-3, 48 h.
In the next test the target is Tubulin (Sus scrofa, UniProt P02554+P02550). Nature of the test: Inhibition of porcine brain tubulin polymerization preincubated for 1 mins followed by GTP addition and measured for 60 mins at 1 min interval by fluorescence assay.
The subject of another test is HeLa. Kind of test: Antiproliferative activity against human HeLa cells assessed as reduction in cell viability incubated for 48 hrs by MTT assay. In kind it is functional, cell-based.
The target of test [6] is T1, Amine oxidase [flavin-containing] A (Homo sapiens, UniProt P21397).
T1 sequence (P21397 whole entry): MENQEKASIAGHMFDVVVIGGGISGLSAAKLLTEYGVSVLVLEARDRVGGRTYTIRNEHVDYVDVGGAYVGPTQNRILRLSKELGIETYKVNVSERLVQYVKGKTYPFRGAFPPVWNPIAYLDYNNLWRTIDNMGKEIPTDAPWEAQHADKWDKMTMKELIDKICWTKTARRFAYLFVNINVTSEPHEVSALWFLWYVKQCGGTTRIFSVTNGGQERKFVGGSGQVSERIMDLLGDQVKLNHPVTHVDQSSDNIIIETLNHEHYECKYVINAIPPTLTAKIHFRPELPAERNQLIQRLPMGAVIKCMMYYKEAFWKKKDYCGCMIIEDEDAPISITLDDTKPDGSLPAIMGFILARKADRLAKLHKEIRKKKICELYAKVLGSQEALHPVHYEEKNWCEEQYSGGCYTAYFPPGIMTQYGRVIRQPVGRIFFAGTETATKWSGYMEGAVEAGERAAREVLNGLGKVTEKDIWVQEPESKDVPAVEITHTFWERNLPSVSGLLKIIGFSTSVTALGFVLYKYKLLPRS
Nature of the test: Inhibition of recombinant human MAO-A assessed as inhibition of 4-hydroxyquinoline formation using kynuramine as substrate incubated for 20 mins by fluorescence assay.

Test [7] addresses T2, Amine oxidase [flavin-containing] B (Homo sapiens, UniProt P27338).
T2 sequence (P27338 whole entry): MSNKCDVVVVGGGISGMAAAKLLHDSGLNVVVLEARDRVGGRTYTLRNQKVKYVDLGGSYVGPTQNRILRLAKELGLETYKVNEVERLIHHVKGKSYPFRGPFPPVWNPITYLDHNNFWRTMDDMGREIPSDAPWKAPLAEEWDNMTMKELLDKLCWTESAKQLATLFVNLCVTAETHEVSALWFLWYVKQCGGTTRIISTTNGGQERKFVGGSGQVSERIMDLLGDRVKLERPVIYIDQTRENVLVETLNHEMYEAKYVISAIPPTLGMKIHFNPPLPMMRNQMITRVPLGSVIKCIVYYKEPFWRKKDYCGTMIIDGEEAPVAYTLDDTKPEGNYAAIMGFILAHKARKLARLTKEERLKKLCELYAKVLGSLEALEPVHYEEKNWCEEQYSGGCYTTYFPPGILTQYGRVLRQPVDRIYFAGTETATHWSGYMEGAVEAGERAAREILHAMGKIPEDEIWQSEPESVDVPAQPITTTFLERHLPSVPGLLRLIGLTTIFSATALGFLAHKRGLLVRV
Kind of test: Inhibition of recombinant human MAO-B assessed as inhibition of 4-hydroxyquinoline formation using kynuramine as substrate incubated for 20 mins by fluorescence assay.

The nature of test [8]: Inhibition of AAPH induced lipid peroxidation. To be noted: dose or concentration not given here.
The nature of test [9]: Antioxidant activity assessed as ABTS radical scavenging activity at 100 uM incubated for 12 to 16 hrs in dark. In kind it is functional. The settings on record: time 12-16 hrs.
Test [10] is described as follows: Antioxidant activity assessed as DPPH radical scavenging activity at 100 uM measured for 20 mins by spectrophotometric analysis. Type of test: functional. On the technique in general: Loss of DPPH colour is used to gauge radical scavenging.
A short description of test [11]: Antioxidant activity assessed as DPPH radical scavenging activity at 100 uM measured for 60 mins by spectrophotometric analysis. Type of test: functional.
For another test, the target named is T3, Tyrosinase (Agaricus bisporus, UniProt O42713).
T3 sequence (O42713 whole entry): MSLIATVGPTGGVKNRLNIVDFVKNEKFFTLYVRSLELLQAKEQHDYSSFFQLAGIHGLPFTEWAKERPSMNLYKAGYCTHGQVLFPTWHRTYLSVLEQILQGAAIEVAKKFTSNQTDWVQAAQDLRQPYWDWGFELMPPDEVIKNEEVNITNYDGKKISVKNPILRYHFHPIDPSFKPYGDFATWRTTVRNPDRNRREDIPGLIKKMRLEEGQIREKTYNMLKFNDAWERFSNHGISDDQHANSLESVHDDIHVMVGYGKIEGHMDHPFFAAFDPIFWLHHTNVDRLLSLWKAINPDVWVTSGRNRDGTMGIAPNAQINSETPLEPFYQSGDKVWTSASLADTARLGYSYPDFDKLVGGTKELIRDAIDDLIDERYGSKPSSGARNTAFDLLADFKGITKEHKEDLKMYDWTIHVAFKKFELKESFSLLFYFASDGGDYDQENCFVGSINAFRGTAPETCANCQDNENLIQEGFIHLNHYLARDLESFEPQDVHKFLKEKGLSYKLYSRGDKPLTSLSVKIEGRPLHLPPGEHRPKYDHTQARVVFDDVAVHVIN
Nature of the test: Inhibition of Agaricus bisporus tyrosinase using L-DOPA as substrate incubated for 10 mins by spectrophotometric analysis.

Test [12] can be described thus: Inhibition of Polyporus arcularius tyrosinase using L-DOPA as substrate incubated for 10 mins by spectrophotometric analysis.
The subject of a further test is MDA-MB-231. Nature of the test: Antiproliferative activity against human MDA-MB-231 cells assessed as reduction in cell viability incubated for 48 hrs by MTT assay. Type of test: functional, cell-based. The settings on record: MDA-MB-231, 48 h.

Each structure is given as a SMILES string. Converted amounts (≈) assume the structure as drawn.

Sequence of Amyloid-beta precursor protein (P05067 whole entry): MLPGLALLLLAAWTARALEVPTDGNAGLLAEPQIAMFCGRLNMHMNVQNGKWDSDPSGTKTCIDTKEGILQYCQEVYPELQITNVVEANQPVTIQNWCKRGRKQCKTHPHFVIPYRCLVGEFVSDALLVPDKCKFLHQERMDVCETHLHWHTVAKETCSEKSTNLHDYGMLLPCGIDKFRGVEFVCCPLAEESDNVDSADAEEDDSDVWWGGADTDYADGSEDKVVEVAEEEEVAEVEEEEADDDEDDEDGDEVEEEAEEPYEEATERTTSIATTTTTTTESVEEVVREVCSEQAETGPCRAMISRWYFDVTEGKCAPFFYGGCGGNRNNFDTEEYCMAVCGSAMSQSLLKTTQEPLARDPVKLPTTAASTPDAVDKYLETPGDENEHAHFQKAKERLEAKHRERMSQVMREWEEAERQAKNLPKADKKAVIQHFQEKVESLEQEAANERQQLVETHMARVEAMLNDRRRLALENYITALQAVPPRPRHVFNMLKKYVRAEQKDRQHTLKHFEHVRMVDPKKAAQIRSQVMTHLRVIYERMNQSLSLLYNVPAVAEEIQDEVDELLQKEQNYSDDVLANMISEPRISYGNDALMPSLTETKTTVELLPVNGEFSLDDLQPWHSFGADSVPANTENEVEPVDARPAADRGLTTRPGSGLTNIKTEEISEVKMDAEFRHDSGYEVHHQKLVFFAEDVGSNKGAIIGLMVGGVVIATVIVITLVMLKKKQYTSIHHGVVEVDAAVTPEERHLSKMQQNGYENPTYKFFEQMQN
Sequence of Serine/threonine-protein kinase pim-1 (P11309 whole entry): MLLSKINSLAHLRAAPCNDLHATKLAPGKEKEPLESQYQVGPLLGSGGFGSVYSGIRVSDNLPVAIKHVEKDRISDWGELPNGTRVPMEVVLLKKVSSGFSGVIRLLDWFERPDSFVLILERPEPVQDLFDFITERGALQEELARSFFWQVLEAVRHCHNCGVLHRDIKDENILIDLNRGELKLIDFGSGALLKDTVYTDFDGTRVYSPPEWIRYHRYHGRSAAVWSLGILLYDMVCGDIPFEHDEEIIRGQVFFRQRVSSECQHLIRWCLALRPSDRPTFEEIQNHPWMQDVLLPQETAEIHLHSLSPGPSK
Sequence of Glycogen synthase kinase-3 beta (P49841 whole entry): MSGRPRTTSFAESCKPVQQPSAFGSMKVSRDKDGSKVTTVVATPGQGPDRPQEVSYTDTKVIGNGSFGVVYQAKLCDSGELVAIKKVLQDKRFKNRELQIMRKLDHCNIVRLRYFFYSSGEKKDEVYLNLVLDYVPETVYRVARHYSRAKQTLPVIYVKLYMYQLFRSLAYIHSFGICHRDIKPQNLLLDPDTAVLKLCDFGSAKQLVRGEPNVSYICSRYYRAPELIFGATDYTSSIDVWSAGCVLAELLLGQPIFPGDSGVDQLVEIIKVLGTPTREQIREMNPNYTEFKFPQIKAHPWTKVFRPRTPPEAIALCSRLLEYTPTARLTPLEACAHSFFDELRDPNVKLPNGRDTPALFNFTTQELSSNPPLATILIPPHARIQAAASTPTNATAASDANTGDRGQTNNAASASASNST

The term IC50 denotes the concentration that inhibits the measured activity by half. For the compound `CN(Cc1ccccc1)Cc1c(O)ccc2c1O/C(=C\c1ccc3c(c1)OCO3)C2=O`, the 50% inhibitory concentration (IC50) in test [1] was determined as 310 nM.

With `COc1cc(C2/C(=C/c3ccc4c(c3)OCO4)C(=O)c3cc(OC)c(OC)c(OC)c32)cc(OC)c1OC` (stereo unspecified), the inhibition in vivo at 20 mg/kg in the test on Ehrlich was found to be 45.5%.

As a reminder, the Ki is a measure of affinity in units of concentration, obtained from inhibition or displacement. High values mean weaker binding, low ones tighter binding. As usually defined, the MIC is the least concentration at which growth counts as inhibited. On to `O=C1/C(=C/c2cc(O)c(O)c(O)c2)Oc2cc(O)cc(O)c21`, for which the Ki in [2] is 5.8 µM. Also, the MIC with Candida parapsilosis amounted to 30 µM (≈ 9.07 µg/mL).

Consider `COc1cc(OC)c2c(c1)O/C(=C\c1ccc(N(C)C)cc1)C2=O`, for which the results for the IC50 in the test on MES-SA/Dx5 and in the test on MES-SA were 15 µM and 60 µM, respectively. In test [3], the “Ratio IC50” value came to 4.

Turning to `COc1cc(O)c2c(c1)O/C(=C\c1c[nH]c3nc(Cl)ccc13)C2=O`, in test [4], the half-inhibitory concentration (IC50) amounted to 8.8 µM.

The compound `CN(C)c1ccc(/C=C2\Nc3ccc(I)cc3C2=O)cc1` displayed an inhibition constant Ki in [5] of 240 nM.

As to `COc1cc2c(c(OC)c1OC)C/C(=C\c1cccc3[nH]ccc13)C2=O`, the IC50 amounted to 30 nM in the test with Bel-7402; 30 nM in the test with K562; 30 nM in the test with A549; 30 nM in the test on PC-3; 1.99 µM against Tubulin; 30 nM with HeLa.

Compound `O=C1/C(=C/c2cc(O)c(O)c(O)c2)Oc2ccccc21` showed a Ki in test [2] of 2.1 µM. Besides, the MIC with Candida parapsilosis is 53 µM (≈ 14.3 µg/mL).

For `O=C1/C(=C(\O)c2cccc(Br)c2)Sc2ccccc21`, the IC50 in test [6] came to 63 µM; in test [7], 350 nM.

One may read the inhibition as the share of the control response that was lost under treatment. Regarding `O=C1/C(=C/c2ccc(O)c(O)c2)Oc2cc(O)ccc21`, in test [8], the inhibition came out at 53%. For the same compound, the Activity in [9] was determined as 71%; in test [10] it was 89%; in [11] it was 89%.

Turning to `O=C1/C(=C/c2ccc(O)cc2O)Oc2cccc(O)c21`, the half-maximal inhibitory concentration (IC50) against Tyrosinase stood at 4 µM; in [12] it was 34 µM.

For the compound `COc1ccc(/C=C2\Cc3c(cc(OC)c(OC)c3OC)C2=O)cc1O`, the IC50 with Bel-7402 was 170 nM; in the test on MDA-MB-231, 170 nM; in the test with A549 it was 170 nM; in the test with PC-3 it was 170 nM; on Tubulin it was 7.56 µM; with HeLa it was 170 nM.

The values above are taken from ChEMBL document CHEMBL5236572, “Bioactive Aurones, Indanones, and Other Hemiindigoid Scaffolds: Medicinal Chemistry and Photopharmacology Perspectives” (J Med Chem, 2022).
